Measured values reported in patent US10590276B2, “Aqueous suspension of inorganic particulate material” (ImerTech SAS, priority 2013, dated 2020).

Assay: pH recovery of calcium carbonate slurry after lowering to pH 8 with CO2 enriched air (Example 1)
Format: physicochemical
Source text: The pH of the aqueous suspension may be measured using any conventional pH meter. […] This may be carried out using either a manual or automatic method, depending on the type of instrument being used.
The pH of the aqueous suspension may be measured by: • mixing a sample of the aqueous suspension to ensure homogeneity, by using either the bench stirrer or the rotating rollers, or by shaking the sample container and contents vigorously; • measuring the temperature of the sample and adjusting the temperature to 22° C.; • removing the pH electrode from its deionised water storage solution and immersing it carefully into the test slurry; • waiting until a stable pH reading is obtained; • recording the pH value of the undisturbed slurry. Viscosity
1 kg samples of a calcium carbonate slurry having 78 wt % solids and 60% of particles less than 2 μm in size (measured using a micrometrics sedigraph) were adjusted to […] at room temperature using 2-amino-2-methyl-1-propanol (AMP) or dimethylethanolamine (DMEA). The control sample was adjusted to pH 10 using dilute sodium hydroxide solution. The solids content of the samples was adjusted using deionised water.
The pH of each slurry was lowered to pH 8 by aspirating the sample with carbon dioxide (CO2) enriched air (2%) using a flow rate of 5 mL/min. When pH 8 had been reached, aspiration of the sample was stopped.
Recovery of the sample pH was then monitored and recorded over subsequent days using the Mettler Toledo FE20 pH meter as described above in the detailed description.

SMILES: CN(C)CCO [DMEA, Dimethylethanolamine]
- pH of sample (day 0, before CO2 aspiration): 10.00
- δ pH (day 0.5): 0.00
- pH of sample (day 0.5, lowered to pH 8 with CO2): 8.00
- pH of sample (day 1): 8.22
- δ pH (day 1): 0.22
- pH of sample (day 2): 8.28
- δ pH (day 2): 0.28
- pH of sample (day 3): 8.35
- δ pH (day 3): 0.35
- pH of sample (day 4): 8.43
- δ pH (day 4): 0.43
- pH of sample (day 9): 8.52
- δ pH (day 9): 0.52
- pH of sample (day 11): 8.55
- δ pH (day 11): 0.55
- pH of sample (day 16): 8.58
- δ pH (day 16): 0.58
- pH of sample (day 20): 8.60
- δ pH (day 20): 0.60
- pH of sample (day 23): 8.64
- δ pH (day 23): 0.64
- pH of sample (day 24): 8.65
- δ pH (day 24): 0.65
- pH of sample (day 27): 8.70
- δ pH (day 27): 0.70
- pH of sample (day 28): 8.79
- δ pH (day 28): 0.79
- pH recovery compared with sample comprising AMP and control sample (recovery from pH 8): increased more rapidly and to a higher level
- pH the sample increased to (recovery from pH 8, end of monitoring, control sample 8.3): 8.8
